The METLIN SMRT retention time set (Domingo-Almenara et al. 2019)

Experiment: gradient 5% acetonitrile 3 min, to 50% in 2 min, to 85% in 15 min, held 3 min, 100 µL/min
Details: column: Zorbax Extend-C18 2.1 x 50 mm; eluents: water / acetonitrile, 0.1% formic acid
Summary of the method: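 Retention time was recorded from adduct peaks, which were picked computationally and each inspected manually. Pure standards ran in mixtures of ~100 molecules on HPLC coupled to a quadrupole time-of-flight mass spectrometer, in positive and negative ionization mode, through a Zorbax Extend-C18 column (2.1 × 50 mm, 1.8 μm) at 100 μL/min. Eluents were water and acetonitrile, each with 0.1% formic acid.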

Row | RP-LC retention time [s] | Compound
1 | 711 | Cc1csc(-c2ccc(N3CCN(C(=O)c4ccco4)CC3)nc2)n1
2 | 698 | COc1ccc(Cl)cc1S(=O)(=O)NC1CCCN(c2ccc(=O)[nH]n2)C1 (stereo not given)
3 | 778 | NC(=O)c1cccn1Cc1ccc(Cl)cc1
4 | 732 | CCN1C(=O)Cc2ccccc2C1C(=O)N(C)Cc1ccco1 (stereo not given)
5 | 588 | Cc1ccc(CN2CCN(CC(=O)Nc3ccncc3)C(=O)C2=O)cc1
6 | 683 | Cc1nc(-c2noc(-c3ccncc3)n2)cn1CC(=O)NCc1ccc(Cl)cc1
7 | 1110 | CCc1noc(-c2ccc(-n3cnc(C(=O)NC4CCCCC4)c3)nc2)n1
8 | 910 | Cc1cccc(N2CCN(C3=NC(=O)C(Cc4ccccc4)S3)CC2)c1 (stereo not given)
9 | 1160 | COc1ccc(NC(=O)Cc2c(C)nn(-c3nc(-c4ccc(F)cc4)cs3)c2C)c(OC)c1
10 | 989 | COC(=O)c1c(-c2ccccc2)noc1NCc1ccc(C)o1
11 | 794 | COC(=O)c1c(C)[nH]c(C(=O)N2CCCC(C(=O)NC3CCCCCC3)C2)c1C (stereo not given)
12 | 754 | CCCCNC(=O)c1ccc2c(c1)NC(=O)C(CC(C)C)N2 (stereo not given)
13 | 678 | Cn1nc(-c2cccc(NC(=O)c3cccs3)c2)ccc1=O
14 | 830 | COC(=O)c1cc(S(=O)(=O)N2CCCC2C(=O)Nc2ccc(F)cc2)cn1C (stereo not given)
15 | 539 | CN(C)CC(=O)N1CCC(Oc2nccnc2N(C)C)C1 (stereo not given)
16 | 733 | COc1ccc(Cn2nnc3cc(C(=O)NCC4CCCO4)ccc32)cc1 (stereo not given)
17 | 684 | O=C(c1ccco1)N1CCCN(c2ccc(=O)n(-c3ccccc3)n2)CC1
18 | 1240 | CCOc1ccc(NC(=O)c2cc3sc(Cl)cc3n2CC)cc1
19 | 1160 | Cc1cccc(-c2noc(CN3C(=O)COc4ccc(Cl)cc43)n2)c1
20 | 1000 | CC(C)Oc1ccc(CNC(=O)c2nnc(-c3ccc(S(=O)(=O)N4CCCC4)cc3)o2)cc1
21 | 704 | Cc1ccc(N2CC(NC(=O)NCc3cccs3)CC2=O)cc1C (stereo not given)
22 | 708 | C=CCSc1nc(N)c2c(C)c(C(=O)O)sc2n1
23 | 908 | COc1ccc(OC)c(NC(=O)C(C)C2CCN(C(=O)Nc3ccc(C)cc3)CC2)c1 (stereo not given)

Row | RP-LC retention time [s] | Compound
24 | 801 | CCC(=O)Nc1nc(-c2ccc3c(c2)N(C)C(=O)C(C)O3)cs1 (stereo not given)
25 | 976 | O=C(Nc1cc(Cl)ccc1F)c1cnc(-c2ccccc2)nc1-c1ccncc1
26 | 953 | CCC1Oc2ccc(S(=O)(=O)N3CCC(C(=O)NCc4cccc(OC)c4)CC3)cc2NC1=O (stereo not given)
27 | 616 | CCOCC(=O)N1CCC(Oc2nccnc2N(C)C)C1 (stereo not given)
28 | 1050 | CCCCOc1ccc(-c2cc3c4nn(CC(=O)NC5CCCC5)c(=O)n4ccn3n2)cc1
29 | 1270 | CCc1nc2cc(-c3noc(-c4ccc(C)cc4)n3)ccc2o1
30 | 1180 | CC(C)Oc1ccc(-c2noc(CN3N=NC4C(=O)N(c5ccc6c(c5)CCC6)C(=O)C43)n2)cc1 (stereo not given)
31 | 653 | CCn1c(=O)c2cc(C(N)=O)nn2c2ccccc21
32 | 570 | COc1ccc(CCC(=O)NCCCN2CCOC(c3ccccc3)C2)cc1 (stereo not given)
33 | 593 | Cc1nc2nc3c(cn2n1)C(=O)CCC3
34 | 876 | O=C(NCc1ccccc1F)c1ccc(Cn2c(C(F)(F)F)nc3cccnc32)cc1
35 | 961 | Cc1ccccc1NC(=O)Cn1cnc2c(sc3nc(-c4ccccc4)ccc32)c1=O
36 | 836 | CCc1c2c(nc3sc(C(=O)NCC4CCCO4)c(N)c13)CC(C)(C)CC2=O (stereo not given)
37 | 890 | Cn1cc(C(=O)NCc2ccccc2Cl)c(S(=O)(=O)N2CCSCC2)n1
38 | 946 | CCc1ccc(NC(=O)CSc2nnc3c4cc(-c5ccc(OC)cc5)nn4ccn23)cc1
39 | 596 | Cc1ccc(C)c(NC(=O)N2CCN(CCn3cnc4cccnc43)CC2)c1
40 | 654 | Cc1oc2c(c1C(=O)NCc1cccc(Br)c1)C1=NCCN1C=N2
41 | 1010 | CCNC(=O)c1c(C)c(-c2ccccc2)n(C)c1C
42 | 597 | CCC(=O)NCC12CCCC=C1NC(=O)CC2 (stereo not given)
43 | 649 | Cc1cc(S(=O)(=O)N2CCC(C(N)=O)CC2)ccc1F
44 | 819 | Cc1noc2nc(CCC(=O)NCc3ccc(Cl)cc3)nc(N3CCCC3)c12
45 | 695 | Cn1c(C2CCN(C(=O)Nc3cc(F)ccc3F)CC2)cc(=O)n2nccc12
46 | 711 | Cc1nc2cc(N3CCCC(C(=O)Nc4ccc5c(c4)OCCO5)C3)cnc2nc1C (stereo not given)

Row | RP-LC retention time [s] | Compound
47 | 832 | Cc1nc(-c2ccc3c(c2)n(CC(=O)N2CCn4c2nc2ccccc24)c(=O)n3C(C)C)no1
48 | 926 | O=C(Nc1ccc(N2CCN(C3CCCCC3)C2=O)nc1)c1ccc(F)cc1
49 | 883 | Cc1nc(N2CCOCC2)c2c(C(=O)Nc3ccc(Cl)cc3)c(C)oc2n1
50 | 586 | O=C(Cc1cccs1)NCC1CCS(=O)(=O)C1 (stereo not given)
51 | 1080 | Cc1cc(Cl)ccc1S(=O)(=O)N1CCC(OC2CCN(c3ccccc3)C2=O)CC1 (stereo not given)
52 | 699 | O=C(NCc1csc(C2CCCN(C(=O)c3ccc(F)cc3F)C2)n1)C1CCC1 (stereo not given)
53 | 602 | Cc1ccnc(NC(=O)C2CC(=O)N(c3n[nH]c4cccc(F)c34)C2)c1 (stereo not given)
54 | 632 | CC1CCN(Cc2csc(N3CCN(C(=O)c4ccc5c(c4)OCO5)CC3)n2)CC1
55 | 724 | COc1ccc(N2CC(c3nc(-c4ccccn4)no3)CC2=O)cc1Cl (stereo not given)
56 | 1050 | O=C(Cn1cc2c(n1)CCCCC2)Nc1ccc(Br)cc1F
57 | 758 | Cc1ccc(C)c(NC(=O)C2CC(=O)N(c3n[nH]c4cccc(F)c34)C2)c1 (stereo not given)
58 | 789 | COCCCNC(=O)C1c2ccccc2CC(=O)N1Cc1ccccc1 (stereo not given)
59 | 737 | CCn1nccc1C(=O)N1CCCN(C2=NS(=O)(=O)C(c3ccc(F)cc3)=C2C)CC1
60 | 662 | Nc1ccc(SCc2nc3cccc4c3n2CCC4)cc1
61 | 843 | CC(=O)NNC(=O)N1Cc2ccccc2Oc2ccc(Cl)cc21
62 | 822 | Cc1cc(S(=O)(=O)Nc2cccn3c(C4CCC4)nnc23)ccc1F
63 | 786 | CC(C)c1ccc(CNC(=O)[C@@]23CCCC[C@H]2N(C)C(=O)CC3)cc1
64 | 738 | CCC1(C(=O)NCc2ccc(Cl)cc2)CCCCC(=O)N1 (stereo not given)
65 | 781 | CCN1c2cc(F)ccc2C(=O)NC12CCN(C(=O)c1ccc(OC)cc1OC)CC2
66 | 936 | COc1cccc(NC(=O)CCC2CCN(S(=O)(=O)c3ccccc3)CC2)c1
67 | 685 | O=C(Cn1nc(Cc2ccncc2)c2ccccc2c1=O)N1CC=C(c2ccccc2)CC1
68 | 980 | O=C(c1ccc2c(c1)N(Cc1ccccc1)C(=O)CO2)N1CCc2ccccc21
69 | 664 | CC(C)CN1CCN(C(=O)c2cc3c(s2)CCN(C(=O)c2ccc(Cl)cc2)C3)CC1

Row | RP-LC retention time [s] | Compound
70 | 650 | O=C(c1ccc2nnc(-c3ccc(Cl)cc3)n2c1)N1CCN(c2ccccn2)CC1
71 | 589 | COc1ccc(-c2noc(Cn3ccnc3C)n2)cc1OC
72 | 925 | CN(C)S(=O)(=O)c1ccc(C(=O)Nc2sc(-c3ccccc3)cc2C(N)=O)cc1
73 | 620 | OCCn1cc(-c2cnc3nnn(Cc4ccc5ncccc5c4)c3n2)cn1
74 | 593 | CCNC(=O)c1nc(N(C)C)c2c(C)scc2n1
75 | 779 | Cn1nccc1C(=O)NCc1ccc2c(c1)CCN2C(=O)c1ccc(F)cc1
76 | 750 | CCSc1nnc(-c2nn(C)c3c2CN(S(=O)(=O)CC)CC3)n1CC
77 | 752 | COc1ccc(NC(=O)C2CCN(S(=O)(=O)c3ccc4[nH]c(=O)ccc4c3)CC2)cc1Cl
78 | 776 | Cc1oc(C2CCN(S(=O)(=O)c3ccccc3F)CC2)nc1C(=O)N1CCOCC1
79 | 821 | Cc1nc(Cn2cccc2C(=O)Nc2cccc(C)c2C)no1
80 | 874 | COc1ccc(-c2nc3cnccn3c2Nc2cc(C)cc(C)c2)cc1OC
81 | 673 | CCNC(=O)C1CCCN(c2nc3ncn(CC(=O)Nc4cc(C)ccc4C)c(=O)c3s2)C1 (stereo not given)
82 | 1140 | CCCC(=O)N1CCc2c([nH]c3ccccc23)C1c1ccc(OCC)cc1 (stereo not given)
83 | 566 | COc1cccc(CCC(=O)N2C[C@@H]3C[C@H](NS(C)(=O)=O)[C@H]2C3)c1
84 | 750 | CCOc1ccc(C(=O)NC(C(=O)Nc2nc3ccccc3[nH]2)C(C)CC)cc1 (stereo not given)
85 | 989 | COc1ccc(-c2ncc3c(n2)CCN(C(=O)Cc2ccccc2Cl)C3)cc1
86 | 1090 | COc1ccc(CN2C=C(C(=O)OCc3nc(-c4cccs4)no3)C(C)=NS2(=O)=O)cc1
87 | 890 | Cc1nc(-c2ccc(F)cc2)sc1C(=O)NC(C)C
88 | 827 | O=C(c1ccc(C(F)(F)F)cc1)N1CCC(n2c(-c3ccoc3)nc3cccnc32)C1 (stereo not given)
89 | 661 | CCOc1ccc(S(=O)(=O)Nc2ccc(-c3cn4ccc(C)nc4n3)cc2)cc1

Row | Compound | RP-LC retention time [s]
90 | COc1ccc2c(c1)C1(CCN(C(=O)Nc3ccc(OC)c(OC)c3)C1)C(=O)N2 (stereo not given) | 671
